Columns and labels:
Settings in all cases: banded MIC grade
Aspergillus fumigatus = assay: Minimum inhibitory concentration, YAG medium; assay type: cell-based
Procedure: (§1) Between 1 and 5 mgs of compound were accurately weighed out into a sterile Eppendorf tube. The compound was dissolved in DMSO to give a solution containing 5 mg/mL. Tubes were stored at −20° C. until required.
(§2) On the day of testing thawed solutions were vortex mixed to ensure homogeneity. 30 μL of solution was removed and added to 570 μL of sterile water in a separate sterile Eppendorf. The thoroughly mixed solution was used to prepare a series of doubling dilutions in water, in a deep well plate. Thirteen replicate plates were prepared using a Minitrak by aspirating 20 μL from each well into eleven clear polystyrene 96 well plates.
(§3) Spores of Aspergillus spp. (Aspergillus fumigatus [two strains], Aspergillus terreus [two strains], Aspergillus niger and Aspergillus flavus) were harvested from cultures grown on Sabarauds agar for 5 days, and resuspended in PBS/Tween 80 to approx 1×10^7 cfu/mL. Each organism suspension was diluted in YAG medium (1% glucose, 1% ammonium chloride and 0.5% yeast extract) to 0.5-2×10^4cfu/mL. 80 μL of an organism suspension was added to each well of the plate containing drug dilutions.
(§4) This typically produced MIC plates with a drug range 50-0.05 mg/L and organism inocula of 1-2×10^4 cfu/mL for Aspergillus spp. All plates were incubated for 24 hrs at 35° C. Growth was assessed by monitoring the optical density at 485 nm for each well. The MIC of a compound is the lowest drug concentration that inhibits growth of an organism by >70% compared with a drug free control. MICs are recorded as mg/L. In cases where the MIC of an organism is […] the MIC is repeated using a concentration range of 0.5-0.0005 mg/L.

A. fumigatus 210 = assay: Minimum inhibitory concentration, YAG medium; assay type: cell-based, Aspergillus fumigatus
Procedure: as §1, §2, §3, §4

A. terreus 49 = assay: Minimum inhibitory concentration, YAG medium; assay type: cell-based, Aspergillus terreus
Procedure: (§5) The compound was dissolved in DMSO to give a solution containing 5 mg/mL. Tubes were stored at −20° C. until required. On the day of testing thawed solutions were vortex mixed to ensure homogeneity. 30 μL of solution was removed and added to 570 μL of sterile water in a separate sterile Eppendorf. The thoroughly mixed solution was used to prepare a series of doubling dilutions in water, in a deep well plate. Thirteen replicate plates were prepared using a Minitrak by aspirating 20 μL from each well into eleven clear polystyrene 96 well plates. Spores of Aspergillus spp. […] All plates were incubated for 24 hrs at 35° C. Growth was assessed by monitoring the optical density at 485 nm for each well. […] MICs are recorded as mg/L.

Aspergillus flavus = assay: Minimum inhibitory concentration, YAG medium; assay type: cell-based
Procedure: as §5

Aspergillus niger = assay: Minimum inhibitory concentration, YAG medium; assay type: cell-based
Procedure: as §5

Aspergillus terreus = assay: Minimum inhibitory concentration, YAG medium; assay type: cell-based
Procedure: as §5

C. albicans = assay: Minimum inhibitory concentration, RPMI medium; assay type: cell-based
Procedure: as §5, with “Assays were also performed in RPMI medium (Roswell Park Memorial Media 1640). To perform MIC tests in this medium, dilutions” for “Spores”, “compounds are prepared in microtitre plates as described above.” for “Aspergillus spp.”, “24-48” for “24”, “The following organisms were tested: […]” for “MICs are recorded as mg/L.”

C. parapsilosis = assay: Minimum inhibitory concentration, RPMI medium; assay type: cell-based
Procedure: as §5, with “Assays were also performed in RPMI medium (Roswell Park Memorial Media 1640). To perform MIC tests in this medium, dilutions” for “Spores”, “compounds are prepared in microtitre plates as described above.” for “Aspergillus spp.”, “24-48” for “24”, “The following organisms were tested: […]” for “MICs are recorded as mg/L.”

C. tropicalis = assay: Minimum inhibitory concentration, RPMI medium; assay type: cell-based
Procedure: as §5, with “Assays were also performed in RPMI medium (Roswell Park Memorial Media 1640). To perform MIC tests in this medium, dilutions” for “Spores”, “compounds are prepared in microtitre plates as described above.” for “Aspergillus spp.”, “24-48” for “24”, “The following organisms were tested: […]” for “MICs are recorded as mg/L.”

Structure (SMILES)	MIC grade, A. FUMIGATUS, YAG media (Aspergillus fumigatus)	MIC grade, A. FUMIGATUS 210, YAG media (A. fumigatus 210)	MIC grade, A. TERREUS 49, YAG media (A. terreus 49)	MIC grade, A. FLAVUS, YAG media (Aspergillus flavus)	MIC grade, A. NIGER, YAG media (Aspergillus niger)	MIC grade, A. TERREUS, YAG media (Aspergillus terreus)	MIC grade, C. ALBICANS, RPMI media (C. albicans)	MIC grade, C. PARAPSILOSIS, RPMI media (C. parapsilosis)	MIC grade, C. TROPICALIS, RPMI media (C. tropicalis)
NC1=NNC(c2cccc3ccccc23)=CS1	1 (1: ≥5 mg/L)	1 (1: ≥5 mg/L)	1 (1: ≥5 mg/L)	1 (1: ≥5 mg/L)	1 (1: ≥5 mg/L)	1 (1: ≥5 mg/L)	1 (1: ≥20 mg/L)	2 (2: 5-20 mg/L)	1 (1: ≥20 mg/L)
COCCOCCC1=NN=C(N)SC1	2 (2: 1-5 mg/L)	2 (2: 1-5 mg/L)	3 (3: 0.2-1 mg/L)	2 (2: 1-5 mg/L)	3 (3: 0.2-1 mg/L)	3 (3: 0.2-1 mg/L)	2 (2: 5-20 mg/L)	2 (2: 5-20 mg/L)	1 (1: ≥20 mg/L)
NC1=NN=C(CCOc2ccc(Br)cc2)CS1	4 (4: <0.2 mg/L)	4 (4: <0.2 mg/L)	1 (1: ≥5 mg/L)	4 (4: <0.2 mg/L)	4 (4: <0.2 mg/L)	3 (3: 0.2-1 mg/L)	1 (1: ≥20 mg/L)	3 (3: 1-5 mg/L)	2 (2: 5-20 mg/L)
NC1=NN=C(CCOCc2ccc(-c3ccccc3)cc2)CS1	1 (1: ≥5 mg/L)	1 (1: ≥5 mg/L)	3 (3: 0.2-1 mg/L)	3 (3: 0.2-1 mg/L)	3 (3: 0.2-1 mg/L)	3 (3: 0.2-1 mg/L)	1 (1: ≥20 mg/L)	2 (2: 5-20 mg/L)	2 (2: 5-20 mg/L)
CCCCCCOCCC1=NN=C(N)SC1	4 (4: <0.2 mg/L)	4 (4: <0.2 mg/L)	4 (4: <0.2 mg/L)	4 (4: <0.2 mg/L)	4 (4: <0.2 mg/L)	4 (4: <0.2 mg/L)	4 (4: <1 mg/L)	4 (4: <1 mg/L)	3 (3: 1-5 mg/L)
NC1=NN=C(c2ccc3ccccc3c2)CS1	2 (2: 1-5 mg/L)	1 (1: ≥5 mg/L)	1 (1: ≥5 mg/L)	1 (1: ≥5 mg/L)	1 (1: ≥5 mg/L)	1 (1: ≥5 mg/L)	1 (1: ≥20 mg/L)	1 (1: ≥20 mg/L)	1 (1: ≥20 mg/L)
NC1=NN=C(CCOc2ccccc2)CS1	4 (4: <0.2 mg/L)	4 (4: <0.2 mg/L)	3 (3: 0.2-1 mg/L)	3 (3: 0.2-1 mg/L)	3 (3: 0.2-1 mg/L)	4 (4: <0.2 mg/L)	3 (3: 1-5 mg/L)	4 (4: <1 mg/L)	2 (2: 5-20 mg/L)

Source: patent US20180201592A1, “2-AMINO-1,3,4-THIADIAZINE AND 2-AMINO-1,3,4-OXADIAZINE BASED ANTIFUNGAL AGENTS” (F2G Limited, priority 2015, published 2018)
